# Laboratory results: the supplement of paper PMC10307832
# What was measured:
# Test in all cases: relative viability (nuclei count vs DMSO), 5 days (fraction); higher = more cells survive
# [1] = test system: NCI-H661
# Procedure, shortened: (§1)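 Nuclei were stained with Hoechst during a one-step fixation (final 0.05% Triton X-100, 1% formaldehyde, 1 ug/ml Hoechst) carried out 5 days after dosing, then counted on 4× images. The cells, lung cancer lines in 1536-well plates, had been dosed by pin tool the day after seeding with one drug alone or a fixed anchor-drug dose plus five library-drug doses (not always all listed) in √10 steps. Relative viability is the nuclei count in treated wells divided by that in vehicle wells, and each value is the median of duplicate plates.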
# [2] = test system: 201T
# Procedure, shortened: as §1
# [3] = test system: NCI-H1666
# Procedure, shortened: as §1
# [4] = test system: BEN
# Procedure, shortened: as §1
# [5] = test system: NCI-H2170
# Procedure, shortened: as §1
# [6] = test system: NCI-H2009
# Procedure, shortened: as §1
# [7] = test system: HCC-366
# Procedure, shortened: as §1
# [8] = test system: CAL-12T
# Procedure, shortened: as §1
# [9] = test system: EKVX
# Procedure, shortened: as §1
# [10] = test system: NCI-H460
# Procedure, shortened: as §1
# [11] = test system: COR-L 105
# Procedure, shortened: as §1
# [12] = test system: NCI-H441
# Procedure, shortened: as §1
# [13] = test system: NCI-H3122
# Procedure, shortened: as §1
# [14] = test system: NCI-H727
# Procedure, shortened: as §1
# [15] = test system: PC-14
# Procedure, shortened: as §1
# [16] = test system: NCI-H1650
# Procedure, shortened: as §1
# [17] = test system: SW 900
# Procedure, shortened: as §1
# [18] = test system: LOU-NH91
# Procedure, shortened: as §1
# [19] = test system: ABC-1
# Procedure, shortened: as §1
# [20] = test system: LK-2
# Procedure, shortened: as §1
# [21] = test system: HARA
# Procedure, shortened: as §1
# [22] = test system: NCI-H1437
# Procedure, shortened: as §1
compound,measurement,setting,value
O=c1cc(-c2cccc3c2Sc2ccccc2S3)oc(N2CCOCC2)c1 + COc1cccc2cc(-c3nc([C@H]4CC[C@H](C(=O)O)CC4)n4ncnc(N)c34)[nH]c12 [OSI-027] (partner 0.5 µM),relative viability,[1]; first compound 0.08 µM,0.736
same,relative viability,[1]; first compound 0.253 µM,0.739
same,relative viability,[1]; first compound 0.8 µM,0.71
same,relative viability,[1]; first compound 2.53 µM,0.642
same,relative viability,[1]; first compound 8 µM,0.647
same,relative viability,[2]; first compound 0.08 µM,0.876
same,relative viability,[2]; first compound 0.8 µM,0.591
same,relative viability,[2]; first compound 2.53 µM,0.695
same,relative viability,[2]; first compound 8 µM,0.734
same,relative viability,[3]; first compound 0.08 µM,0.838
same,relative viability,[3]; first compound 0.253 µM,1.06
same,relative viability,[3]; first compound 0.8 µM,0.923
same,relative viability,[3]; first compound 2.53 µM,0.832
same,relative viability,[3]; first compound 8 µM,0.885
same,relative viability,[4]; first compound 0.08 µM,0.279
same,relative viability,[4]; first compound 0.253 µM,0.268
same,relative viability,[4]; first compound 0.8 µM,0.281
same,relative viability,[4]; first compound 2.53 µM,0.298
same,relative viability,[4]; first compound 8 µM,0.321
same,relative viability,[5]; first compound 0.08 µM,0.78
same,relative viability,[5]; first compound 0.253 µM,0.801
same,relative viability,[5]; first compound 0.8 µM,0.727
same,relative viability,[5]; first compound 2.53 µM,0.508
same,relative viability,[5]; first compound 8 µM,0.717
same,relative viability,[6]; first compound 0.08 µM,0.627
same,relative viability,[6]; first compound 0.253 µM,0.663
same,relative viability,[6]; first compound 0.8 µM,0.734
same,relative viability,[6]; first compound 2.53 µM,0.575
same,relative viability,[6]; first compound 8 µM,0.553
same,relative viability,[7]; first compound 0.08 µM,0.89
same,relative viability,[7]; first compound 0.253 µM,1.2
same,relative viability,[7]; first compound 0.8 µM,0.692
same,relative viability,[7]; first compound 2.53 µM,0.723
same,relative viability,[7]; first compound 8 µM,0.775
same,relative viability,[8]; first compound 0.08 µM,0.671
same,relative viability,[8]; first compound 0.253 µM,0.709
same,relative viability,[8]; first compound 0.8 µM,0.407
same,relative viability,[8]; first compound 2.53 µM,0.57
same,relative viability,[8]; first compound 8 µM,0.297
same,relative viability,[9]; first compound 0.08 µM,0.722
same,relative viability,[9]; first compound 0.253 µM,0.812
same,relative viability,[9]; first compound 0.8 µM,0.678
same,relative viability,[9]; first compound 2.53 µM,0.715
same,relative viability,[9]; first compound 8 µM,0.67
same,relative viability,[10]; first compound 0.08 µM,0.605
same,relative viability,[10]; first compound 0.253 µM,0.994
same,relative viability,[10]; first compound 0.8 µM,0.643
same,relative viability,[10]; first compound 2.53 µM,0.568
same,relative viability,[10]; first compound 8 µM,0.527
same,relative viability,[11]; first compound 0.08 µM,0.686
same,relative viability,[11]; first compound 0.253 µM,0.707
same,relative viability,[11]; first compound 0.8 µM,0.636
same,relative viability,[11]; first compound 2.53 µM,0.686
same,relative viability,[11]; first compound 8 µM,0.734
same,relative viability,[12]; first compound 0.08 µM,0.5
same,relative viability,[12]; first compound 0.253 µM,0.813
same,relative viability,[12]; first compound 0.8 µM,0.671
same,relative viability,[12]; first compound 2.53 µM,0.645
same,relative viability,[12]; first compound 8 µM,0.761
same,relative viability,[13]; first compound 0.08 µM,1.25
same,relative viability,[13]; first compound 0.253 µM,1.08
same,relative viability,[13]; first compound 0.8 µM,0.957
same,relative viability,[13]; first compound 2.53 µM,1.03
same,relative viability,[13]; first compound 8 µM,1.08
same,relative viability,[14]; first compound 0.08 µM,0.631
same,relative viability,[14]; first compound 0.253 µM,0.673
same,relative viability,[14]; first compound 0.8 µM,0.586
same,relative viability,[14]; first compound 2.53 µM,0.563
same,relative viability,[14]; first compound 8 µM,0.64
same,relative viability,[15]; first compound 0.08 µM,0.884
same,relative viability,[15]; first compound 0.253 µM,1.07
same,relative viability,[15]; first compound 0.8 µM,0.714
same,relative viability,[15]; first compound 2.53 µM,0.772
same,relative viability,[15]; first compound 8 µM,1.02
same,relative viability,[16]; first compound 0.08 µM,0.615
same,relative viability,[16]; first compound 0.253 µM,0.593
same,relative viability,[16]; first compound 0.8 µM,0.506
same,relative viability,[16]; first compound 2.53 µM,0.521
same,relative viability,[16]; first compound 8 µM,0.561
same,relative viability,[17]; first compound 0.08 µM,0.573
same,relative viability,[17]; first compound 0.253 µM,0.697
same,relative viability,[17]; first compound 0.8 µM,0.459
same,relative viability,[17]; first compound 2.53 µM,0.494
same,relative viability,[17]; first compound 8 µM,0.596
same,relative viability,[18]; first compound 0.08 µM,0.687
same,relative viability,[18]; first compound 0.253 µM,0.736
same,relative viability,[18]; first compound 0.8 µM,0.594
same,relative viability,[18]; first compound 2.53 µM,0.628
same,relative viability,[18]; first compound 8 µM,0.758
same,relative viability,[19]; first compound 0.08 µM,0.501
same,relative viability,[19]; first compound 0.253 µM,0.478
same,relative viability,[19]; first compound 0.8 µM,0.609
same,relative viability,[19]; first compound 2.53 µM,0.452
same,relative viability,[19]; first compound 8 µM,0.445
same,relative viability,[20]; first compound 0.08 µM,0.174
same,relative viability,[20]; first compound 0.253 µM,0.189
same,relative viability,[20]; first compound 0.8 µM,0.188
same,relative viability,[20]; first compound 2.53 µM,0.175
same,relative viability,[20]; first compound 8 µM,0.176
same,relative viability,[21]; first compound 0.08 µM,0.458
same,relative viability,[21]; first compound 0.253 µM,0.624
same,relative viability,[21]; first compound 0.8 µM,0.566
same,relative viability,[21]; first compound 2.53 µM,0.424
same,relative viability,[21]; first compound 8 µM,0.481
same,relative viability,[22]; first compound 0.08 µM,0.885
same,relative viability,[22]; first compound 0.253 µM,1.17
same,relative viability,[22]; first compound 0.8 µM,1.01
same,relative viability,[22]; first compound 2.53 µM,0.891
same,relative viability,[22]; first compound 8 µM,1.02
